Laboratory results from patent US20040105778A1, “Gamma irradiation of solid nanoparticulate active agents” (Elan Pharma International Limited, priority 2002, published 2004).

Test: Gamma irradiation dosing studies, naproxen assay and degradants
Type: physicochemical

- Naproxen Assay Average (Control (0 kGy)): 99.07 % w/w
- Naproxen Assay Relative to Control (Control (0 kGy)): 100.00
- Naproxen Assay Average (gamma dose 5 kGy): 96.38 % w/w
- Naproxen Assay Relative to Control (gamma dose 5 kGy): 97.28
- Naproxen Assay Average (gamma dose 10 kGy): 100.82 % w/w
- Naproxen Assay Relative to Control (gamma dose 10 kGy): 101.77
- Naproxen Assay Average (gamma dose 15 kGy): 100.44 % w/w
- Naproxen Assay Average (gamma dose 25 kGy): 100.08 % w/w
- Naproxen Assay Average (gamma dose 30 kGy): 100.47 % w/w
- Naproxen Assay Average (gamma dose 40 kGy): 99.14 % w/w
- Naproxen Assay Relative to Control (gamma dose 40 kGy): 100.07
- Naproxen Assay Average (gamma dose 50 kGy): 99.49 % w/w
- Naproxen Assay Relative to Control (gamma dose 50 kGy): 100.42
SMILES: COc1ccc2cc([C@H](C)C(=O)O)ccc2c1 [Naproxen (API), naproxen]
